In patent publication US20250122207A1, “AP2 ASSOCIATED KINASE 1 INHIBITORS AND USES THEREOF” (Satellos Bioscience Inc., priority 2023, published 2025):

Legend:
[1] = target: AAK1 (Homo sapiens, UniProt Q2M2I8); experiment: pAP2M1 cell-based assay (in-cell Western); settings: Hela cells co-transfected with AP2M1 and AAK1, 3 hr treatment; class symbols; read-out: AAK1 In-cell Western: IC50
Excerpt: pAP2M1 Cell-Based Assay (in-Cell Western):
The plate was read on Licor Odyssey CLx imaging system (LICOR) to acquire fluorescence intensity at 700 channel and 800 channel.
Data analysis: Fluorescence intensity at 700 channel served as internal standard and 800 channel were normalized with 700 channel.

[2] = target: T1, AAK1 (amino acids T27-A365) (Homo sapiens, UniProt Q2M2I8); experiment: AAK1 pSENs assay; format: biochemical; settings: class symbols; read-out: AAK1 pSENs: EIC50
T1 construct: against AAK1 (amino acids T27-A365); 6His (N, cleaved yes)
Protocol: The recombinant proteins were independently expressed in Escherichia coli BL21(DE3) cells cultured in Luria-Bertani (LB) medium until OD600 reached 0.6-0.8, then cooled to 15° C. and supplemented with 0.5 mM isopropyl 1-thio-D-galactopyranoside (IPTG) induce protein expression 16 h. Cells were harvested and resuspended in lysis buffer (50 mM HEPES pH 7.5, 500 mM NaCl, 5 mM imidazole, 5% glycerol, 0.5 mM Tris (2-carboxyethyl) phosphine (TCEP), cOmplete Protease Inhibitor Tablet (Roche)) and lysed by microfludics high pressure homogenizer (UH-06, Union-Biotech). Proteins were purified using […] chromatography (His FF column, Bestchrom) and eluted stepwise in binding buffer with 20-300 mM imidazole. Removal of the hexahistidine tag was performed at 4° C. overnight using recombinant TEV protease and reacted with BirA to obtain the corresponding biotinylated-AAK1, BIKE or GAK proteins. Further separated in the reverse Strep column (Strep-Tactin® XT, IBA). The Biotin elution sample was collected containing untagged biotinylated protein was then purified by Ion-exchange chromatography (Mono Q 10/100 GL, Cytiva) and Size-exclusion chromatography (HiLoad 16/600 Superdex 200 pg, Cytiva). The pure protein was stored in a storage buffer 50 mM HEPES (pH 7.5), 300 mM NaCl, 5% glycerol at −80° C. Protein were characterized by SDS-PAGE, LC-MS and aSEC.
This example describes one illustrative method for determining the IC50 of the compounds of the present invention against AAK1 (amino acids T27-A365). AAK1 protein was dissolved at 20 nM in 1× enzyme solution (50 mM HEPES pH7.5, 10 mM MgCl2, 1 mM DTT, 1% glycerol, 0.5 mM EGTA, 0.01% Briji35, 0.02% BSA) and 12.5 ul was incubated with 250 nl DMSO or 250 nl compound in DMSO at 25° C. for 15 min. The reaction was started by addition of 12.5 ul of 30 uM AQT0759 (Assayquant, CSKS-AQT0759B) and 70 uM ATP which were diluted in 1× substrate dilution buffer (50 mM HEPES pH7.5, 10 mM MgCl2, 1 mM DTT, 1% glycerol, 0.5 mM EGTA, 0.01% Briji35).

Sequence of AAK1 (Q2M2I8 whole entry): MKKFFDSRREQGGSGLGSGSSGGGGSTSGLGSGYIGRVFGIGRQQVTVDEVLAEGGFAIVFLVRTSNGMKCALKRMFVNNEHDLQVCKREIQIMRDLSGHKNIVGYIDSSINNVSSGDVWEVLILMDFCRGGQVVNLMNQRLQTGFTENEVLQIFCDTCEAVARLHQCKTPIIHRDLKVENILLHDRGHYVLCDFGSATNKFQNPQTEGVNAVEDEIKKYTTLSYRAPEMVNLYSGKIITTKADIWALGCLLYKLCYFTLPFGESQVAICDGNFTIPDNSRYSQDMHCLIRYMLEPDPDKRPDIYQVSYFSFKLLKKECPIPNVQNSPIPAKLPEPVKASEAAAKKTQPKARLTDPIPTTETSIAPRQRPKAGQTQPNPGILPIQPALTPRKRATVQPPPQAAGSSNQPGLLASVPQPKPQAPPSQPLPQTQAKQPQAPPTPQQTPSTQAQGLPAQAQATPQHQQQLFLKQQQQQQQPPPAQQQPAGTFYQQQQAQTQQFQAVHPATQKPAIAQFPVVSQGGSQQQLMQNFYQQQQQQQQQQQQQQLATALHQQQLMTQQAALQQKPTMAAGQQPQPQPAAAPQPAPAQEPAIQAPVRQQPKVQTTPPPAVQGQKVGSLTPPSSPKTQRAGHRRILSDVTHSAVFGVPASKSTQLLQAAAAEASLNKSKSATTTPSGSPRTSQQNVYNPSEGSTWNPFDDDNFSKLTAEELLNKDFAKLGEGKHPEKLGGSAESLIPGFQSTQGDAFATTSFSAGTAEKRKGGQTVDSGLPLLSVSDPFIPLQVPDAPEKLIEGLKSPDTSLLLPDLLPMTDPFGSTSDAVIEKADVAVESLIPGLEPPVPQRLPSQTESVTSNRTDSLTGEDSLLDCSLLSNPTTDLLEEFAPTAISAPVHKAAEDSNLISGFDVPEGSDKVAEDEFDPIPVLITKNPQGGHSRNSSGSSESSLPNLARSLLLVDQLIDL
T1 sequence (Q2M2I8 27-365): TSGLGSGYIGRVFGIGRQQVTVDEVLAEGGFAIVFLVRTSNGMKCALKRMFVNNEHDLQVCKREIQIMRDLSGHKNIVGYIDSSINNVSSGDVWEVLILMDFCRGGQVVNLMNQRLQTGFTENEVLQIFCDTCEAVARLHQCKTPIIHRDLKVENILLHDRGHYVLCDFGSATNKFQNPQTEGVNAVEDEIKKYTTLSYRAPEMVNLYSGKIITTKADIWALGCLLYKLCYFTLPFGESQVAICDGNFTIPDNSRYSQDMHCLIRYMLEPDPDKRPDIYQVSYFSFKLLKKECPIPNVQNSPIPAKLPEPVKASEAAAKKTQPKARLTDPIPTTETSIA

IC50 [1]	IC50 [2]	Structure (SMILES)
> 1500 nM	51 to 150 nM	O=C1NCC[C@H]1OC(=O)N1CCN(c2ccn3ncc(-c4cccnc4OC4CC4)c3n2)CC1 [Compound I-23, [(3R)-2-oxopyrrolidin-3-yl]-4-[3-[2-(cyclopropoxy)-3-pyridyl]pyrazolo[1,5-a]pyrimidin-5-yl]piperazine-1-carboxylate]
> 1500 nM	51 to 150 nM	O=C1NCC[C@@H]1OC(=O)N1CCN(c2ccn3ncc(-c4cccnc4OC4CC4)c3n2)CC1 [Compound I-24, [(3S)-2-Oxopyrrolidin-3-yl]-4-[3-[2-(cyclopropoxy)-3-pyridyl]pyrazolo[1,5-a]pyrimidin-5-yl]piperazine-1-carboxylate]
> 1500 nM	> 1500 nM	O=C(O[C@@H]1CC(=O)N(C2CCNCC2)C1)N1CCN(c2ccn3ncc(-c4cccnc4OC4CC4)c3n2)CC1 [Compound I-33, (R)-5-Oxo-1-(piperidin-4-yl)pyrrolidin-3-yl 4-(3-(2-cyclopropoxypyridin-3-yl)pyrazolo[1,5-a]pyrimidin-5-yl)piperazine-1-carboxylate]
> 1500 nM	151 to 500 nM	C[C@H]1CN(c2ccn3ncc(-c4cccnc4OC4CC4)c3n2)CCN1C(=O)O[C@@H]1CNC(=O)C1 [Compound I-40, [(3S)-5-Oxopyrrolidin-3-yl](2S)-4-[3-[2-(cyclopropoxy)-3-pyridyl]pyrazolo[1,5-a]pyrimidin-5-yl]-2-methyl-piperazine-1-carboxylate]
> 1500 nM	151 to 500 nM	N#C[C@@H]1CN(c2ccn3ncc(-c4cccnc4OC4CC4)c3n2)CCN1C(=O)O[C@@H]1CNC(=O)C1 [Compound I-41, (S)-5-Oxopyrrolidin-3-yl (S)-2-cyano-4-(3-(2-cyclopropoxypyridin-3-yl)pyrazolo[1,5-a]pyrimidin-5-yl)piperazine-1-carboxylate]
> 1500 nM	> 1500 nM	O=C1C[C@H](OC(=O)N2CCN(c3ccn4ncc(-c5cccnc5OC5CC5)c4n3)C[C@H]2C(=O)O)CN1 [Compound I-41-4C, (S)-4-(3-(2-Cyclopropoxypyridin-3-yl)pyrazolo[1,5-a]pyrimidin-5-yl)-1-((((S)-5-oxopyrrolidin-3-yl)oxy)carbonyl)piperazine-2-carboxylic acid]
> 1500 nM	151 to 500 nM	COC(=O)[C@@H]1CN(c2ccn3ncc(-c4cccnc4OC4CC4)c3n2)CCN1C(=O)O[C@@H]1CNC(=O)C1 [Compound I-41-5, 2-Methyl 1-((S)-5-oxopyrrolidin-3-yl) (S)-4-(3-(2-cyclopropoxypyridin-3-yl)pyrazolo[1,5-a]pyrimidin-5-yl)piperazine-1,2-dicarboxylate]
> 1500 nM	151 to 500 nM	NC(=O)[C@@H]1CN(c2ccn3ncc(-c4cccnc4OC4CC4)c3n2)CCN1C(=O)O[C@@H]1CNC(=O)C1 [Compound I-41-6, (S)-5-Oxopyrrolidin-3-yl-(S)-2-carbamoyl-4-(3-(2-cyclopropoxypyridin-3-yl)pyrazolo[1,5-a]pyrimidin-5-yl)piperazine-1-carboxylate]

Structure (SMILES)	IC50 [1]	IC50 [2]
CC1(OC(=O)N2CCN(c3ccn4ncc(-c5cccnc5OC5CCC5)c4n3)CC2)COC1 [Compound I-17, (3-Methyloxetan-3-yl) 4-[3-[2-(cyclobutoxy)-3-pyridyl]pyrazolo[1,5-a]pyrimidin-5-yl]piperazine-1-carboxylate]	501 to 1500 nM	1 to 50 nM
CC1(OC(=O)N2CCN(c3ccn4ncc(-c5cccnc5OCC5CCC5)c4n3)CC2)COC1 [Compound I-19, 3-Methyloxetan-3-yl 4-(3-(2-(cyclobutylmethoxy)pyridin-3-yl)pyrazolo[1,5-a]pyrimidin-5-yl)piperazine-1-carboxylate]	> 1500 nM	151 to 500 nM
CN(CCN1C[C@@H](OC(=O)N2CCN(c3ccn4ncc(-c5cccnc5OC5CC5)c4n3)CC2)CC1=O)C(=O)OC(C)(C)C [Compound I-35, (S)-1-(2-((tert-butoxycarbonyl)(methyl)amino)ethyl)-5-oxopyrrolidin-3-yl-4-(3-(2-cyclopropoxypyridin-3-yl)pyrazolo[1,5-a]pyrimidin-5-yl)piperazine-1-carboxylate]	> 1500 nM	51 to 150 nM
